Reference: PubChem BioAssay AID2202554 (NIEHS Division of Translational Toxicology (DTT))
Results filed as inconclusive are left out. Active and inactive are the calls of the source. The rule behind the calls is not given here.

These molecules were tested on S. typhimurium/E. coli reverse mutation, colony counts (assay: Bacterial reverse mutation test (aka Ames test) summary data;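 note: His-minus Salmonella and trp-minus E. coli WP2 uvrA pKM101 with or without liver S9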).
Excerpt: The Ames test uses bacteria cultures to determine whether a substance causes mutations. Because there is a significant overlap between substances that are mutagens and those that are carcinogens, a quick and inexpensive mutagenicity test is useful as an initial screening for possible carcinogens.
The Ames test relies on specific strains of S. typhimurium, namely: TA97, TA98, TA100, TA102, TA104, TA1535, TA1537, and TA1538. In addition to the S. typhimurium strains, the test may also use the E. coli strain WP2 uvrA pKM101.
Each of the bacterial strains has a mutation that prevents it from making an amino acid (a protein building block) required for normal cell growth. The S. typhimurium strains are unable to manufacture histidine; the E. coli strain cannot manufacture tryptophan. The tester strains will not be able to grow without amino acid supplementation, unless the mutated gene is changed back to the correct DNA sequence (reversion mutation). Being exposed to a mutagenic chemical increases the chance that the mutant gene will be restored to the correct sequence, which allows the bacteria to grow and form colonies. Each substance under study is tested in a variety of bacterial strains with different types of altered DNA sequences in order to provide a comprehensive assessment of the mutagenic potential of the substance.
Some non-mutagenic substances are converted to mutagenic substances when metabolized by the liver; in contrast, some substances that are mutagenic in their natural state are converted to non-mutagens by the liver. All substances are tested in their natural state, as well as in the presence of liver enzymes that can produce this metabolic conversion of the test substance. Extracts of rat, hamster, or mouse liver enzymes (S9 mix) are used for this purpose.
D. Preparing the Cultures
Multiple sets of cultures are prepared using a range of doses and different amounts of liver enzymes for each bacterial strain. Each culture is prepared in a test tube containing a suspension of one bacterial strain and either an S9 mix or plain buffer solution. Then the test substance is added. Negative control cultures are established using the same ingredients, but without the test substance. Positive control cultures are established using known mutagens active in particular bacterial strains and metabolic conditions (for example, with or without S9). Once prepared, each culture is incubated for 20 minutes at 37° C. Agar is then added to the cultures, and the contents of each tube are poured onto the surface of a Petri dish that was prepared with standard bacterial culture medium. The plates are then incubated, usually for two days.
Depending on the substance to be tested, the exposure and incubation processes may be modified. These variations include:
- Elimination of the 20-minute incubation period in a test tube prior to plating (this method is referred to as the standard plate incorporation method)
- Enzymatic reduction of azo and diazo substances (this process occurs in the intestine or liver of animals) using a chemical called flavin mononucleotide (FMN) or intestinal bacterial preparations from rats
- Testing in sealed chambers such as desiccators for volatile and gaseous chemicals.
To validate the test, a trained investigator compares the number of colonies on the chemical-treated plates to the number of colonies on the negative control plates. If the substance under test is mutagenic, the chemical-treated plates will have a much greater number of colonies than the negative control plates.
- A positive response is a reproducible, dose-related increase in mutant colonies in any single strain, with or without the addition of S9 metabolic enzymes. While there is no minimum percentage of increase required for a result to be considered positive, a twofold increase in mutant colonies in a treated plate is usually considered to be a positive (mutagenic) response.
[…]

| Compound | outcome |
| --- | --- |
| COc1cc(/C=C/C(=O)CC(=O)/C=C/c2ccc(O)c(OC)c2)ccc1O | inactive; negative |
| Oc1ccc(/C=C/c2cc(O)cc(O)c2)cc1 | inactive; negative |
| CCN | inactive; negative |
| Oc1ccc(Cl)cc1Cc1cc(Cl)ccc1O | active; positive |
| ClC1=C(Cl)C2(Cl)C3C(Cl)C=CC3C1(Cl)C2(Cl)Cl (stereo unspecified) | inactive; negative |
| CC#N | inactive; negative |
| O.O=C([O-])c1ccccn1.O=C([O-])c1ccccn1.O=C([O-])c1ccccn1.[Cr+3] | inactive; negative |
| O=C(O)CS | inactive; negative |
| CCCCCCCCOC(=O)c1ccccc1C(=O)OCCCCCCCC | inactive; negative |
| O=C(CCl)c1ccccc1 | inactive; negative |
| CN(C)c1ccc(C2(c3ccc(N(C)C)cc3)OC(=O)c3cc(N(C)C)ccc32)cc1 | inactive; negative |
| CC(C)(C)c1ccc(O)c(O)c1 | inactive; negative |
| O=C(O)c1ccccc1[N+](=O)[O-] | active; positive |
| O=C(c1ccccc1)C(O)c1ccccc1 (stereo unspecified) | active; weakly positive |
| CCOC(=O)C1OC1(C)c1ccccc1 (stereo unspecified) | inactive; negative |
| CC(C)CO | inactive; negative |
| NC(=O)c1cnccn1 | inactive; negative |
| CCC=CC#N | inactive; negative |
| ClCCOCOCCCl | active; positive |
| NCCO | inactive; negative |
| COC(=O)CCCCC(=O)OC | inactive; negative |
| Clc1ccc(C(Cl)(Cl)Cl)c(Cl)c1 | active; positive |
| CCCC(CCC)C(=O)O | inactive; negative |
| CCN(CC)c1ccccc1 | inactive; negative |

| Compound | outcome |
| --- | --- |
| ClCC(Cl)CCl | active; positive |
| CC(C)CC(=O)CC(C)C | inactive; negative |
| Brc1ccccc1 | inactive; negative |
| C[C@H]1CCCC(=O)CCC/C=C/c2cc(O)cc(O)c2C(=O)O1 | inactive; negative |
| CC(C)(C)c1ccc(OCC2CO2)cc1 (stereo unspecified) | active; positive |
| CCN(CC)C(=S)S | inactive; negative |
| NC(=O)c1ccccc1C(N)=O | inactive; negative |
| SCCc1cnccn1 | inactive; negative |
| CC=CC=CC=O | active; positive |
| Clc1cccc2ccccc12 | active; weakly positive |
| Oc1cccc2cc3cccc(O)c3c(O)c12 | inactive; negative |
| CCCCCc1cc(O)c2c(c1)OC(C)(C)[C@@H]1CCC(C)=C[C@@H]21 | inactive; negative |
| CC[C@H](CC[C@@H](C)[C@H]1CC[C@H]2[C@@H]3CC=C4C[C@@H](O)CC[C@]4(C)[C@H]3CC[C@]12C)C(C)C | inactive; negative |
| Nc1nc2cc(Cl)c(Cl)cc2s1 | inactive; negative |
| Nc1ccn([C@@H]2CS[C@H](CO)O2)c(=O)n1 | inactive; negative |
| CC(C)O | inactive; negative |
| CC(=O)O | inactive; negative |
| C(=NC1CCCCC1)=NC1CCCCC1 | inactive; negative |
| COc1ccc([N+](=O)[O-])cc1N=Nc1c(O)c(C(=O)Nc2cccc([N+](=O)[O-])c2)cc2ccccc12 | active; positive |
| O=C1C=CC(=O)C=C1 | inactive; negative |
| N#[N+]c1ccc2c(S(=O)(=O)[O-])cccc2c1O | active; positive |
| CCN1CCOCC1 | active; weakly positive |
| CC(=O)Nc1cccc(O)c1 | inactive; negative |
| CCN(CC)CCNc1ccc(CO)c2sc3ccccc3c(=O)c12 | active; positive |

| Compound | outcome |
| --- | --- |
| O=Cc1c(Cl)cccc1Cl | inactive; negative |
| CCOC(=O)c1ccccc1N | inactive; negative |
| O=[N+]([O-])c1cc(Cl)c(Cl)c(Cl)c1 | active; positive |
| C=C(C)[C@H]1CC=C(C)CC1 | inactive; negative |
| Cc1ccc(N)cc1Cl | active; weakly positive |
| C=C[C@H]1CN2CC[C@H]1C[C@@H]2[C@@H](O)c1ccnc2ccc(OC)cc12 | inactive; negative |
| CCCCCCCCCCCC(=O)N(CCO)CCO | inactive; negative |
| O=C(O)CCCCC1CCSS1 (stereo unspecified) | inactive; negative |
| O=c1c(-c2ccc(O)cc2)coc2cc(O)cc(O)c12 | active; positive |
| CCCCCCCCCC=CCC1CC(=O)OC1=O (stereo unspecified) | inactive; negative |
| Fc1ccccc1 | active; positive |
| C=C(Cl)CCl | active; positive |
| COC(=O)C(c1ccccc1)C1CCCCN1 (stereo unspecified) | inactive; negative |
| Clc1ccc(C(c2ccccc2Cl)C(Cl)Cl)cc1 (stereo unspecified) | inactive; negative |
| CCCCNCC | inactive; negative |
| Nc1ccc2cc3ccccc3cc2c1 | active; positive |
| O=C1c2c(O)cccc2Cc2cccc(O)c21 | inactive; negative |
| Cc1cc(Br)ccc1NC(=O)CCl | active; positive |
| COCCO | inactive; negative |
| COc1ccc(N)cc1N | active; positive |
| BrCC1CO1 (stereo unspecified) | active; positive |
| CC(CO)(CO)[N+](=O)[O-] | inactive; negative |
| CC=CC=O | active; positive |
| CNc1ccccc1 | inactive; negative |

| Compound | outcome |
| --- | --- |
| Nc1ccc(N=Nc2cccc(N=Nc3ccc(N)cc3N)c2)c(N)c1 | active; positive |
| O=C(Nc1ccc(Cl)cc1)Nc1ccc(Cl)c(Cl)c1 | inactive; negative |
| C=CCC | inactive; negative |
| O=C1Nc2ccc(S(=O)(=O)O)cc2C1=O | active; positive |
| Nc1ccc(-c2ccccc2)cc1 | active; positive |
| CC(=O)c1c(C)c([N+](=O)[O-])c(C(C)(C)C)c([N+](=O)[O-])c1C | inactive; negative |
| CCC=C1OC(=O)c2ccccc21 | active; positive |
| CCCCC(CC)COCCC#N (stereo unspecified) | inactive; negative |
| Cc1ccccc1C#N | inactive; negative |
| CCOP(=O)(OCC)OCC | inactive; negative |
| Oc1ccc(Cl)cc1 | inactive; negative |
| OC[C@@H](O)[C@@H](O)[C@H](O)[C@H](O)CO | inactive; negative |
| Cc1nnc(NS(=O)(=O)c2ccc(N)cc2)s1 | inactive; negative |
| CCCCCCCCCCCCS | inactive; negative |
| c1ccc(SCCSc2ccccc2)cc1 | inactive; negative |
| NCCNCCN | inactive; negative |
| CCCCCC(=O)O | inactive; negative |
| CN(C)c1ccccc1 | inactive; negative |
| O=[N+]([O-])c1cc(C(F)(F)F)cc([N+](=O)[O-])c1Cl | inactive; negative |
| C=C(C)C(=O)OCC(C)C | inactive; negative |
| Nc1cc(S(=O)(=O)[O-])cc2cc(S(=O)(=O)[O-])c(N=Nc3ccc(-c4ccc(N=Nc5c(S(=O)(=O)[O-])cc6cc(S(=O)(=O)[O-])cc(N)c6c5[O-])c([O-])c4)cc3[O-])c([O-])c12.[Cu+2].[Cu+2].[Na+].[Na+].[Na+].[Na+] | inactive; negative |
| [K+] | inactive; negative |
| CCNc1cccc(O)c1 | active; positive |
| O=C(CO)CO | active; positive |
